Tests used:
Type in all cases: cell-based
LPA/S1P GPCR of interest = target: T1, LPA/S1P GPCR of interest (Homo sapiens, UniProt Q92633); experiment: Beta-Arrestin based assay (PathHunter)
T1 construct: host or cells: CHO
In short: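 EA Parental CHO cells (DiscoverX) were transfected with FuGENE (Roche) using CMV promoter-driven DNA constructs encoding the LPA/S1P GPCR of interest fused to a ProLink tag. Beta-arrestin recruitment in agonist mode was assessed 24-48 hrs later with PathHunter kits. Tests ran in quadruplicate in white 384 well plates, and end point luminescence was fit to a 4 parameter logistic function.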

LPA1 [1] = target: T2, LPA1 (Homo sapiens, UniProt Q92633); experiment: LPA1 Migration Assay (Oris); set-up: host or cells: primary fibroblasts (lung, dermal), HFL-1, 3T3 and CHO cells expressing LPA1R; details: read-out: Cell Migration EC50
In short: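 Antagonist inhibition was derived by 4-parameter logistic fitting of migrated-cell counts against compound concentration. Dye-loaded, 12-24 h serum-starved fibroblasts, HFL-1, 3T3 or CHO cells expressing LPA1R moved into an Oris detection zone in response to LPA or serum, then were fixed and counted on a high-content reader.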

LPA1 [2] = target: T2, LPA1; experiment: Ca Flux LPA1 assay; set-up: the full-length cDNA for human LPA1 is obtained by PCR of the reverse transcription reaction; expressed in transfected cells

T2 sequence (Q92633 whole entry): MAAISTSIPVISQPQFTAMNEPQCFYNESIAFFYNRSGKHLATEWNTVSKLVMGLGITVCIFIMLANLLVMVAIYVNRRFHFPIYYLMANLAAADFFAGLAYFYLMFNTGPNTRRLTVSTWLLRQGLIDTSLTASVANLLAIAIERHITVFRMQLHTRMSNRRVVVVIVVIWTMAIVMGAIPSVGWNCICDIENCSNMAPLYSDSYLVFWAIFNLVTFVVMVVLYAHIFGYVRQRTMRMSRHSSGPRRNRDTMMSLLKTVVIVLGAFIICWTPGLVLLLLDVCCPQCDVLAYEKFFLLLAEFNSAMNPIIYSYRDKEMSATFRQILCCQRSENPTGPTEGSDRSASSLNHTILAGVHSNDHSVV
T1 sequence (Q92633 whole entry): as above

| SMILES | EC50 (LPA/S1P GPCR of interest) | EC50 (LPA1 [1]) | IC50 (LPA1 [2]) |
| --- | --- | --- | --- |
| Cc1noc(-c2ccc(-c3ccc(OC(F)(F)C(=O)O)cc3)cc2)c1NC(=O)O[C@H](C)c1ccccc1 [IT228] | < 0.05 µM | 0.05 to 0.5 µM | 0.05 to 0.5 µM |
| C[C@@H](OC(=O)Nc1c(C#Cc2nc3sc(C4(C(=O)O)CC4)cc3s2)cnn1C)c1ccccc1 [IT095] |  |  | < 0.05 µM |
| Cc1c(C2(C(=O)O)CC2)sc2cc(C#Cc3cnn(C)c3NC(=O)O[C@H](C)c3ccccc3)sc12 [IT107] | < 0.05 µM | 0.05 to 0.5 µM | < 0.05 µM |
| C[C@@H](OC(=O)Nc1c(-c2cc(Cl)c(-c3cc4sc(C5(C(=O)O)CC5)cc4s3)cc2F)cnn1C)c1ccccc1 [IT282] | < 0.05 µM | < 0.05 µM | 0.05 to 0.5 µM |
| Cc1cc(C2(C(=O)O)CC2)c(F)cc1-c1cc2sc(-c3nnn(C)c3NC(=O)O[C@H](C)c3ccccc3)cc2s1 [IT341] | < 0.05 µM | 0.05 to 0.5 µM | 0.05 to 0.5 µM |
| Cc1noc(-c2ccc(-c3ccc(Oc4c(C)nn(C)c4C(=O)O)cc3)cc2)c1NC(=O)O[C@H](C)c1ccccc1 [IT483] | < 0.05 µM | 0.05 to 0.5 µM | 0.05 to 0.5 µM |
| C[C@@H](OC(=O)Nc1c(-c2ccc(-c3ccc(C4(C(=O)O)CC4)cc3)cc2)oc2ccccc12)c1ccccc1 [IT496] | < 0.05 µM | < 0.05 µM | > 0.5 µM |
| C[C@@H](OC(=O)Nc1c(-c2cc3sc(-c4ccc(C5(C(=O)O)CC5)cc4F)cc3s2)cnn1C)c1ccccc1 [IT245] | < 0.05 µM | 0.05 to 0.5 µM | 0.05 to 0.5 µM |
| Cc1noc(-c2cc3sc(C#CC4(C(=O)O)CC4)cc3s2)c1NC(=O)O[C@H](C)c1ccccc1 [IT117] | < 0.05 µM | 0.05 to 0.5 µM | < 0.05 µM |
| Cc1noc(-c2ccc(-c3ccc(OC4(C(=O)O)CCC4)cc3)cc2)c1NC(=O)O[C@H](C)c1ccccc1 [IT196] | < 0.05 µM | 0.05 to 0.5 µM | < 0.05 µM |
| Cc1nsc(-c2ccc(-c3ccc(C4(C(=O)O)CC4)cc3)cc2)c1NC(=O)OC(c1ccccc1)C(F)(F)F (single isomer, unassigned) [IT078] |  | 0.05 to 0.5 µM | 0.05 to 0.5 µM |
| Cc1noc(-c2ccc(-c3nc4sc(C5(C(=O)O)CC5)cc4s3)cc2)c1NC(=O)O[C@H](C)c1ccccc1 [IT111] | < 0.05 µM | 0.05 to 0.5 µM | 0.05 to 0.5 µM |

Other lines, results leading:

| EC50 (LPA/S1P GPCR of interest) | EC50 (LPA1 [1]) | IC50 (LPA1 [2]) | SMILES |
| --- | --- | --- | --- |
| < 0.05 µM | < 0.05 µM | < 0.05 µM | Cc1noc(-c2cc(F)c(-c3ccc(Oc4ccccc4C(=O)O)cc3)cc2F)c1NC(=O)O[C@H](C)c1ccccc1 [IT315] |
| < 0.05 µM | 0.05 to 0.5 µM | < 0.05 µM | C[C@@H](OC(=O)Nc1c(C#Cc2ccc(Oc3ccccc3C(=O)O)cc2)cnn1C)c1ccccc1 [IT301] |
| < 0.05 µM | < 0.05 µM | 0.05 to 0.5 µM | C[C@@H](OC(=O)Nc1c(-c2ccc(-c3cc(F)c(Oc4ccncc4C(=O)O)c(F)c3)cc2)nnn1C)c1ccccc1 [IT453] |
| < 0.05 µM | 0.05 to 0.5 µM | 0.05 to 0.5 µM | Cc1nsc(-c2ccc(-c3cc(F)c(Oc4ccccc4C(=O)O)c(F)c3)cc2)c1NC(=O)O[C@H](C)c1ccccc1 [IT448] |
| < 0.05 µM | < 0.05 µM | 0.05 to 0.5 µM | C[C@@H](OC(=O)Nc1c(-c2ccc(-c3cc(F)c(Oc4ncccc4C(=O)O)c(F)c3)cc2)cnn1C)c1ccccc1 [IT308] |
| < 0.05 µM | < 0.05 µM | < 0.05 µM | Cc1noc(-c2ccc(-c3cc(F)c(Oc4nccnc4C(=O)O)c(F)c3)cc2)c1NC(=O)O[C@H](C)c1ccccc1 [IT305] |
| < 0.05 µM | < 0.05 µM | < 0.05 µM | C[C@@H](OC(=O)Nc1c(-c2ccc(-c3cc(F)c(Oc4ccccc4C(=O)O)c(F)c3)cc2)cnn1C)c1ccccc1 [IT425] |
| < 0.05 µM | 0.05 to 0.5 µM | < 0.05 µM | C[C@@H](OC(=O)Nc1c(-c2ccc(-c3ccc(C4(C(=O)O)CC4)c4c3CCC4)cc2)cnn1C)c1ccccc1 [IT112] |
| < 0.05 µM | 0.05 to 0.5 µM | < 0.05 µM | Cc1noc(-c2ccc(-c3ccc(Oc4ccccc4C(=O)O)nc3)cc2)c1NC(=O)O[C@H](C)c1ccccc1 [IT345] |
| 0.05 to 0.5 µM | > 0.5 µM | 0.05 to 0.5 µM | C[C@@H](OC(=O)Nc1c(-c2ccc(-c3ccc(C4(C(=O)O)CCOCC4)cc3)cc2)cnn1C)c1ccccc1 [IT027] |
| < 0.05 µM | 0.05 to 0.5 µM | < 0.05 µM | C[C@@H](OC(=O)Nc1c(-c2ccc(-c3ccc(Oc4ccccc4C(=O)O)cc3)cc2)cnn1C)c1ccccc1 [IT198] |
| < 0.05 µM | 0.05 to 0.5 µM | > 0.5 µM | C[C@@H](OC(=O)Nc1c(-c2ccc(-c3ccc(Oc4ccccc4C(=O)O)cc3)cc2)oc2ccccc12)c1ccccc1 (single isomer, unassigned) [IT495] |
| < 0.05 µM | 0.05 to 0.5 µM | < 0.05 µM | C[C@@H](OC(=O)Nc1c(-c2ccc(-c3cc(F)c(Oc4cccnc4C(=O)O)c(F)c3)cc2)cnn1C)c1ccccc1 [IT436] |
